Paper PMC8198214, “Synthesis and Biological Evaluation of Spirocyclic Chromane Derivatives as a Potential Treatment of Prostate Cancer” (Molecules, 2021)

The compounds below were run on 22Rv1 cells (assay: 22Rv1 cell viability (CCK-8) antiproliferation assay). Conditions: 22Rv1 cell antiproliferation.
Format: cell-based, human
Description: The 22Rv1 prostate cancer cell line in this study was purchased from KeyGEN Biotech Co. Ltd. (Nanjing, Jiangsu, China ). The cells were cultured in RPMI 1640 medium and maintained at 37 °C in a 5% CO2 incubator. For the cell viability assay, the cell slurry was diluted to required volume at a density of 80,000 cells/mL. Then, 100 μL the cell slurry was seeded in each well of the 96-well plate. The cells were incubated for 72 h at 37 °C, 5% CO2 under humidified condition. The reference and test compounds solution (200×) were prepared with DMSO and were diluted from 200× to 1× with culture medium (RPMI 1640 medium without phenol red and containing 10% fetal calf serum, penicillin (100U/mL), streptomycin (100 μg/mL) and 0.1 nM DHT). The previous culture medium was removed and 200 μL/well of the compound solution (1×) was added to assay plate (final conc: 1×). Then the cells were incubated at 37 °C, 5% CO2 under humidified conditions. 5 Days later, the CCK-8 assay reagent was equilibrated at room temperature for 30 min prior to use. CCK-8 was mixed with fresh medium at a ratio of 1:10 and 100 μL of the diluted CCK8 reagent was added to each well and the plates were incubated for 4.5 h at 37 °C. Finally, absorbance value (OD value) was read on plate reader. GraphPad Prism v5.0 software was used to process data for IC50.

Row | Compound | fold increased potency versus B10 [fold] | fold less potency than A-485 [fold]
1 | CNC(=O)Cn1cc(-c2ccc3c(c2)CCC32OC(=O)N(CC(=O)N(Cc3ccc(F)cn3)[C@@H]3CCc4ccccc43)C2=O)cn1 (stereo partly drawn) [B12, N-((R)-2,3-Dihydro-1H-inden-1-yl)-N-((5-fluoropyridin-2-yl)methyl)-2-(5-(1-(2-(methylamino)-2-oxoethyl)-1H-pyrazol-4-yl)-2′,4′-dioxo-2,3-dihydrospiro[indene-1,5′-oxazolidin]-3′-yl)acetamide] | 5 | –
2 | CNC(=O)Cn1cc(-c2ccc3c(c2)CCC32OC(=O)N(CC(=O)N(Cc3ccc(F)cc3)[C@@H]3CCc4ncccc43)C2=O)cn1 (stereo partly drawn) [B11, N-((R)-6,7-Dihydro-5H-cyclopenta[b]pyridin-5-yl)-N-(4-fluorobenzyl)-2-(5-(1-(2-(methylamino)-2-oxoethyl)-1H-pyrazol-4-yl)-2′,4′-dioxo-2,3-dihydrospiro[indene-1,5′-oxazolidin]-3′-yl)acetamide] | 5 | –
3 | C[C@H](N(Cc1ccc2c(c1)OC(F)(F)O2)C(=O)CN1C(=O)O[C@@]2(CCc3cc(-c4cnn(C)c4)ccc32)C1=O)C(F)(F)F [B1, N-((2,2-Difluorobenzo[d][1,3]dioxol-5-yl)methyl)-2-((R)-5-(1-methyl-1H-pyrazol-4-yl)-2′,4′-dioxo-2,3-dihydrospiro[indene-1,5′-oxazolidin]-3′-yl)-N-((S)-1,1,1-trifluoropropan-2-yl)acetamide] | – | 10

Same assay, conditions: Homo sapiens; Table 2; 22Rv1 cells; means of two independent experiments (n = 2)

Row | Compound | IC50 [nM]
4 | CNC(=O)Nc1ccc2c(c1)CCC21OC(=O)N(CC(=O)N(Cc2ccc(F)cc2)[C@H]2CCc3ccccc32)C1=O (stereo partly drawn) [B5, N-((S)-2,3-Dihydro-1H-inden-1-yl)-N-(4-fluorobenzyl)-2-(5-(3-methylureido)-2′,4′-dioxo-2,3-dihydrospiro[indene-1,5′-oxazolidin]-3′-yl)acetamide] | 406
5 | Cn1cc(-c2ccc3c(c2)CCC32OC(=O)N(CC(=O)N3CCn4c(nnc4C(F)(F)F)C3)C2=O)cn1 (stereo not drawn) [B18, 5-(1-Methyl-1H-pyrazol-4-yl)-3′-(2-oxo-2-(3-(trifluoromethyl)-5,6-dihydro-[1,2,4]triazolo[4,3-a]pyrazin-7(8H)-yl)ethyl)-2,3-dihydrospiro[indene-1,5′-oxazolidine]-2′,4′-dione] | > 25000
6 | CNC(=O)Cn1cc(-c2ccc3c(c2)CCC32OC(=O)N(CC(=O)N(Cc3ccc(F)cc3)[C@H]3CCc4cc(F)ccc43)C2=O)cn1 (stereo partly drawn) [B9, N-((S)-5-Fluoro-2,3-dihydro-1H-inden-1-yl)-N-(4-fluorobenzyl)-2-(5-(1-(2-(methylamino)-2-oxoethyl)-1H-pyrazol-4-yl)-2′,4′-dioxo-2,3-dihydrospiro[indene-1,5′-oxazolidin]-3′-yl)acetamide] | 334
7 | CNC(=O)Nc1ccc2c(c1)CCC21OC(=O)N(CC(=O)N2CCCc3ccc(C(F)F)cc32)C1=O (stereo not drawn) [B17, 1-(3′-(2-(7-(Difluoromethyl)-3,4-dihydroquinolin-1(2H)-yl)-2-oxoethyl)-2′,4′-dioxo-2,3-dihydrospiro[indene-1,5′-oxazolidin]-5-yl)-3-methylurea] | 8700
8 | CNC(=O)Cn1cc(-c2ccc3c(c2)CCC32OC(=O)N(CC(=O)N(Cc3ccc(F)cn3)[C@@H]3CCc4ccccc43)C2=O)cn1 (stereo partly drawn) [B12, N-((R)-2,3-Dihydro-1H-inden-1-yl)-N-((5-fluoropyridin-2-yl)methyl)-2-(5-(1-(2-(methylamino)-2-oxoethyl)-1H-pyrazol-4-yl)-2′,4′-dioxo-2,3-dihydrospiro[indene-1,5′-oxazolidin]-3′-yl)acetamide] | 265
9 | Cn1cc(-c2ccc3c(c2)CCC32OC(=O)N(CC(=O)N(Cc3ccc(F)cc3)[C@H]3CCc4ccccc43)C2=O)cn1 (stereo partly drawn) [B4, N-((S)-2,3-Dihydro-1H-inden-1-yl)-N-(4-fluorobenzyl)-2-(5-(1-methyl-1H-pyrazol-4-yl)-2′,4′-dioxo-2,3-dihydrospiro[indene-1,5′-oxazolidin]-3′-yl)acetamide] | 252
10 | Cn1cc(-c2ccc3c(c2)CCC32OC(=O)N(CC(=O)N(Cc3ccc(F)cc3)[C@@H]3CN4CCC3CC4)C2=O)cn1 (stereo partly drawn) [B3, N-(4-Fluorobenzyl)-2-(5-(1-methyl-1H-pyrazol-4-yl)-2′,4′-dioxo-2,3-dihydrospiro [indene-1,5′-oxazolidin]-3′-yl)-N-((S)-quinuclidin-3-yl)acetamide] | > 25000
11 | CNC(=O)Cn1cc(-c2ccc3c(c2)CCC32OC(=O)N(CC(=O)N(Cc3ccc(F)cn3)[C@@H]3CCc4cccnc43)C2=O)cn1 (stereo partly drawn) [B13, N-((R)-6,7-Dihydro-5H-cyclopenta[b]pyridin-7-yl)-N-((5-fluoropyridin-2-yl)methyl)-2-(5-(1-(2-(methylamino)-2-oxoethyl)-1H-pyrazol-4-yl)-2′,4′-dioxo-2,3-dihydrospiro[indene-1,5′-oxazolidin]-3′-yl)acetamide] | 3470
12 | CNC(=O)Cn1cc(-c2ccc3c(c2)CCC32OC(=O)N(CC(=O)N(Cc3ccc(F)cc3)[C@H]3CCCc4ccccc43)C2=O)cn1 (stereo partly drawn) [B15, N-(4-fluorobenzyl)-2-(5-(1-(2-(methylamino)-2-oxoethyl)-1H-pyrazol-4-yl)-2′,4′-dioxo-2,3-dihydrospiro[indene-1,5′-oxazolidin]-3′-yl)-N-((S)-1,2,3,4-tetrahydronaphthalen-1-yl)acetamide] | 450
13 | CNC(=O)Cn1cc(-c2ccc3c(c2)CCC32OC(=O)N(CC(=O)N(Cc3ccc(F)cc3)[C@@H]3CCc4ccccc43)C2=O)cn1 (stereo partly drawn) [B10, N-((R)-2,3-Dihydro-1H-inden-1-yl)-N-(4-fluorobenzyl)-2-(5-(1-(2-(methylamino)-2-oxoethyl)-1H-pyrazol-4-yl)-2′,4′-dioxo-2,3-dihydrospiro[indene-1,5′-oxazolidin]-3′-yl)acetamide] | 1660
14 | CNC(=O)Cn1cc(-c2ccc3c(c2)CCC32OC(=O)N(CC(=O)N(Cc3ccc(F)cc3)[C@@H]3CCc4ncccc43)C2=O)cn1 (stereo partly drawn) [B11, N-((R)-6,7-Dihydro-5H-cyclopenta[b]pyridin-5-yl)-N-(4-fluorobenzyl)-2-(5-(1-(2-(methylamino)-2-oxoethyl)-1H-pyrazol-4-yl)-2′,4′-dioxo-2,3-dihydrospiro[indene-1,5′-oxazolidin]-3′-yl)acetamide] | 340
15 | C[C@H](N(Cc1ccc2c(c1)OC(F)(F)O2)C(=O)CN1C(=O)O[C@@]2(CCc3cc(-c4cnn(C)c4)ccc32)C1=O)C(F)(F)F [B1, N-((2,2-Difluorobenzo[d][1,3]dioxol-5-yl)methyl)-2-((R)-5-(1-methyl-1H-pyrazol-4-yl)-2′,4′-dioxo-2,3-dihydrospiro[indene-1,5′-oxazolidin]-3′-yl)-N-((S)-1,1,1-trifluoropropan-2-yl)acetamide] | 1370
16 | CNC(=O)Cn1cc(-c2ccc3c(c2)CCC32OC(=O)N(CC(=O)N(Cc3ccc(F)cc3)[C@H]3CCc4ccccc43)C2=O)cn1 (stereo partly drawn) [B7, N-((S)-2,3-Dihydro-1H-inden-1-yl)-N-(4-fluorobenzyl)-2-(5-(1-(2-(methylamino)-2-oxoethyl)-1H-pyrazol-4-yl)-2′,4′-dioxo-2,3-dihydrospiro[indene-1,5′-oxazolidin]-3′-yl)acetamide] | 270
17 | CC(C)(O)Cn1cc(-c2ccc3c(c2)CCC32OC(=O)N(CC(=O)N(Cc3ccc(F)cc3)[C@H]3CCc4ccccc43)C2=O)cn1 (stereo partly drawn) [B6, N-((S)-2,3-Dihydro-1H-inden-1-yl)-N-(4-fluorobenzyl)-2-(5-(1-(2-hydroxy-2-methylpropyl)-1H-pyrazol-4-yl)-2′,4′-dioxo-2,3-dihydrospiro[indene-1,5′-oxazolidin]-3′-yl)acetamide] | 431
18 | CN1C2CCC1CC(N(Cc1ccc(F)cc1)C(=O)CN1C(=O)O[C@@]3(CCc4cc(-c5cnn(C)c5)ccc43)C1=O)C2 (stereo partly drawn) [B2, N-(4-Fluorobenzyl)-2-((R)-5-(1-methyl-1H-pyrazol-4-yl)-2′,4′-dioxo-2,3-dihydrospiro[indene-1,5′-oxazolidin]-3′-yl)-N-(8-methyl-8-azabicyclo[3.2.1]octan-3-yl)acetamide] | 37600

Same assay, conditions: Table 1; 22Rv1 cells; means of two independent experiments (n = 2)

Row | Compound | IC50 [nM]
19 | N-(4-Fluorobenzyl)-2-(5-(3-methylureido)-2′,5′-dioxo-2,3-dihydrospiro[indene-1,3′-pyrrolidin]-1′-yl)-N-((S)-1,1,1-trifluoropropan-2-yl)acetamide [A8] | 6410
20 | N-(4-Fluorobenzyl)-2-(3-(1-methyl-1H-pyrazol-4-yl)-2′,4′-dioxo-5,6-dihydrospiro [cyclopenta[c]pyridine-7,5′-oxazolidin]-3′-yl)-N-((S)-1,1,1-trifluoropropan-2-yl)acetamide [A6] | 27000
21 | N-(4-Fluorobenzyl)-2-(2-methyl-2′,4′-dioxo-2,4,8,9-tetrahydrospiro[cyclopenta [6,7]chromeno [3,4-c]pyrazole-7,5′-oxazolidin]-3′-yl)-N-((S)-1,1,1-trifluoropropan-2-yl)acetamide [A4] | > 100000
22 | 2-(5′-(3-Cyclopropylureido)-2′′,4′′-dioxo-2′H-dispiro[cyclopropane-1,3′-indene-1′,5′′-oxazolidin]-3′′-yl)-N-(4-fluorobenzyl)-N-((S)-1,1,1-trifluoropropan-2-yl)acetamide [A3] | 798
23 | N-(4-Fluorobenzyl)-2-(3-(1-(2-(methylamino)-2-oxoethyl)-1H-pyrazol-4-yl)-2′,4′-dioxospiro[fluorene-9,5′-oxazolidin]-3′-yl)-N-((S)-1,1,1-trifluoropropan-2-yl)acetamide [A1] | > 100000
24 | N-(4-Fluorobenzyl)-2-(5′-(3-methylureido)-2′′,4′′-dioxo-2′H-dispiro[cyclopropane-1,3′-indene-1′,5′′-oxazolidin]-3′′-yl)-N-((S)-1,1,1-trifluoropropan-2-yl)acetamide [A2] | 351
25 | N-(4-Fluorobenzyl)-2-(5-(1-(2-(methylamino)-2-oxoethyl)-1H-pyrazol-4-yl)-2′,5′-dioxo-2,3-dihydrospiro[indene-1,3′-pyrrolidin]-1′-yl)-N-((S)-1,1,1-trifluoropropan-2-yl)acetamide [A7] | 1800
26 | N-(4-Fluorobenzyl)-2-(3-(1-(2-(methylamino)-2-oxoethyl)-1H-pyrazol-4-yl)-2′,4′-dioxo-5,6-dihydrospiro[cyclopenta[b]pyridine-7,5′-oxazolidin]-3′-yl)-N-((S)-1,1,1-trifluoropropan-2-yl)acetamide [A5] | 16100

Same assay, conditions: Table 2; 22Rv1 cells; means of two independent experiments (n = 2)

Row | Compound | IC50 [nM]
27 | N-(4-Fluorobenzyl)-N-((S)-1-methyl-4,5,6,7-tetrahydro-1H-indazol-4-yl)-2-(5-(1-(2-(methylamino)-2-oxoethyl)-1H-pyrazol-4-yl)-2′,4′-dioxo-2,3-dihydrospiro [indene-1,5′-oxazolidin]-3′-yl)acetamide [B14] | 1090
